# Reference: patent publication US20080132565A1, “Polycyclic Macrolactones” (priority 2003, published 2008)
# Like-named read-outs stand apart in the source and are kept apart here.
# What was measured:
# [1] = physicochemical properties: solubility
# [2] = tested on: Staphylococcus aureus DSM 20231; experiment: agar diffusion test; type: cell-based; settings: CM, 10 μl per filter disk
# Protocol: (§1) The Gram-negative bacteria and fungi which were tested were insensitive to the abyssomicins.
# Bacillus subtilis DSM 10 [3] = experiment: agar diffusion test; type: cell-based; settings: 10 μl per filter disk
# Protocol: as §1
# [4] = tested on: Arthrobacter aurescens DSM 20166; experiment: agar diffusion test; type: cell-based; settings: CM, 10 μl per filter disk
# Protocol: as §1
# [5] = tested on: Brevibacillus brevis DSM 30; experiment: agar diffusion test; type: cell-based; settings: 10 μl per filter disk
# Protocol: as §1
# [6] = tested on: Streptomyces viridochromogenes Tü 57; experiment: agar diffusion test; type: cell-based; settings: CM, 10 μl per filter disk
# Protocol: as §1
# [7] = tested on: Rhodococcus erythropolis DSM 1069; experiment: agar diffusion test; type: cell-based; settings: 10 μl per filter disk
# Protocol: as §1
# [8] = tested on: Staphylococcus aureus DSM 20231; experiment: MIC dilution series test; type: cell-based; settings: CM (complex medium); 2 ml test tube scale, shaker at 120 rpm
# Protocol: (§2) The minimum inhibitory concentration (MIC) of abyssomicin C was determined in a dilution series test. As expected, the test organisms are substantially more sensitive to abyssomicin C in chemically defined medium.
# Bacillus subtilis DSM 10 [9] = experiment: MIC dilution series test; type: cell-based; settings: 2 ml test tube scale, shaker at 120 rpm
# Protocol: as §2
# [10] = tested on: Rhodococcus erythropolis DSM 1069; experiment: MIC dilution series test; type: cell-based; settings: CM (complex medium); 2 ml test tube scale, shaker at 120 rpm
# Protocol: as §2
# Gram-positive bacteria = experiment: agar diffusion test, activity spectrum; type: cell-based; settings: Gram-positive bacteria tested
# Protocol: as §1
compound,measurement,setting,value
CC1CC(C)C2(O)CC(=NO2)C2C(O)C3OC4=C(C(=O)OC42CC3C)C1=O (stereo not drawn) [abyssomicin B],solubility,[1]; in methanol and DMSO,soluble
CC1CC(C)/C(O)=C2/C(=O)OC34CC(C)C5OC23C(CC4C5O)C1=O (stereo not drawn) [abyssomicin D],solubility,[1]; in methanol and DMSO,soluble
abyssomicin C,solubility,[1],soluble
same,inhibition zone diameter,[2]; 0.1 mg/ml,9 mm
same,inhibition zone diameter,[2]; 0.3 mg/ml,11 mm
same,inhibition zone diameter,[2]; 1 mg/ml,19 mm
same,inhibition zone diameter,"Bacillus subtilis DSM 10 [3]; CM, 0.1 mg/ml",10 mm
same,inhibition zone diameter,"Bacillus subtilis DSM 10 [3]; CM, 0.3 mg/ml",12 mm
same,inhibition zone diameter,"Bacillus subtilis DSM 10 [3]; CM, 1 mg/ml",16 mm
same,inhibition zone diameter,"Bacillus subtilis DSM 10 [3]; MM, 0.1 mg/ml",14 mm
same,inhibition zone diameter,"Bacillus subtilis DSM 10 [3]; MM, 0.3 mg/ml",19 mm
same,inhibition zone diameter,"Bacillus subtilis DSM 10 [3]; MM, 1 mg/ml",26 mm
same,inhibition zone diameter,[4]; 0.3 mg/ml,10 mm
same,inhibition zone diameter,[4]; 1 mg/ml,14 mm
same,inhibition zone diameter,"[5]; CM, 0.1 mg/ml",9 mm
same,inhibition zone diameter,"[5]; CM, 0.3 mg/ml",12 mm
same,inhibition zone diameter,"[5]; CM, 1 mg/ml",17 mm
same,inhibition zone diameter,"[5]; MM, 0.1 mg/ml",19 mm
same,inhibition zone diameter,"[5]; MM, 0.3 mg/ml",24 mm
same,inhibition zone diameter,"[5]; MM, 1 mg/ml",30 mm
same,inhibition zone diameter,[6]; 0.3 mg/ml,9 mm
same,inhibition zone diameter,[6]; 1 mg/ml,11 mm
same,inhibition zone diameter,"[7]; CM (first line, r17), 0.1 mg/ml",15 mm
same,inhibition zone diameter,"[7]; CM (first line, r17), 0.3 mg/ml",18 mm
same,inhibition zone diameter,"[7]; CM (first line, r17), 1 mg/ml",27 mm
same,inhibition zone diameter,"[7]; CM (second line, r18), 0.1 mg/ml",21 mm
same,inhibition zone diameter,"[7]; CM (second line, r18), 0.3 mg/ml",28 mm
same,inhibition zone diameter,"[7]; CM (second line, r18), 1 mg/ml",30 mm
same,Minimum inhibitory concentration (MIC),[8],100 µg/mL
same,Minimum inhibitory concentration (MIC),Bacillus subtilis DSM 10 [9]; CM (complex medium),10 µg/mL
same,Minimum inhibitory concentration (MIC),Bacillus subtilis DSM 10 [9]; MM (chemically defined medium),0.1 µg/mL
same,Minimum inhibitory concentration (MIC),[10],10 µg/mL
same,antibiotic effect,Gram-positive bacteria,antibiotic effect
